According to the Biogen ADME set (Fang et al. 2023):
In brackets after ≈: the same amount, converted by molar mass. Non-standard residues stand in square brackets, D forms with d. Residues, ends and D or L forms follow the SMILES beside them. *: point of attachment. Fmoc = O=C(OCC1c2ccccc2-c2ccccc21)*; Cha = N[C@@H](CC1CCCCC1)C(=O)O; AMC = Cc1cc(=O)oc2cc(N*)ccc12

Conditions: for aqueous solubility: pH 6.8

| MDR1-MDCK efflux ratio | intrinsic clearance, human liver microsomes [mL/min/kg] | intrinsic clearance, rat liver microsomes [mL/min/kg] | aqueous solubility [µg/mL] | fraction unbound, human plasma | fraction unbound, rat plasma | Compound |
| --- | --- | --- | --- | --- | --- | --- |
| 1.16 | 43 | 2030 | – | – | – | CN1CCC(Cc2cccc(-c3nccs3)n2)C1 (centres undefined) |
| 4.68 | 11.9 | 206 | 80.7 (≈ 252 µM) | – | – | O=C(C1CCC(O)CC1)N1CCCN(c2ccc(F)cc2)CC1 (centres undefined) |
| 2.57 | 120 | 1410 | 35.7 (≈ 111 µM) | – | – | O=C(CSc1ncn[nH]1)N(C1CCCCC1)C1CCCCC1 |
| 0.989 | 87.5 | 492 | 10.3 (≈ 29.7 µM) | – | – | Cc1ccc(-c2nc(NCc3ccco3)ncc2-c2cc(C)no2)cn1 |
| 2.39 | 15.1 | 71.4 | – | – | – | c1cc(Nc2cc(C3CC3)[nH]n2)nc(Nc2ccc3nc[nH]c3c2)n1 |
| 1.11 | ≤ 4.74 | ≤ 10.7 | – | – | – | Cc1cc(=O)oc2cc(NC(=O)[C@H](CCCCN)NC(=O)[C@H](CC3CCCCC3)NC(=O)OCC3c4ccccc4-c4ccccc43)ccc12 (Fmoc-[Cha]-Lys-{AMC}) |
| 8.2 | ≤ 4.74 | 107 | – | – | – | CC(=O)NC[C@H]1C[C@]2(C)[C@@H](CCCC[C@]2(C)O)N1CC1(O)CCCC1 |
| 1.48 | 87.9 | 719 | 29.7 (≈ 95.2 µM) | – | – | N#Cc1ccccc1-c1ccc(-c2nccn2-c2cccnc2)o1 |
| 1.63 | ≤ 4.74 | ≤ 10.7 | 45.6 (≈ 173 µM) | – | – | CN(CCc1ccccn1)C(=O)Nc1nncs1 |
| 0.857 | 52.4 | 741 | 30.1 (≈ 93.4 µM) | – | – | O=C(CCCc1cc(Cl)sc1Cl)N1CCC(O)CC1 |
| – | 23.7 | 64.8 | 34.5 (≈ 116 µM) | – | – | Cn1cc(NC(=O)c2csc(Cc3ccccc3)n2)cn1 |
| 6.39 | 26.8 | 1160 | – | – | – | COc1ccc(-c2nc(NC(C)C)ncc2-c2ncc[nH]2)cc1 |
| – | ≤ 4.74 | ≤ 10.7 | 36.3 (≈ 147 µM) | – | – | Cc1ccccc1NC(=O)CN1C(=O)CCC1=O |
| 1.06 | 63.1 | 2860 | 13.6 (≈ 45.9 µM) | – | – | COc1ccc2c(c1)CN(C(=O)c1cc(C3CC3)[nH]n1)CC2 |
| – | ≤ 4.74 | ≤ 10.7 | – | – | – | COc1ccc(Cc2nnn[nH]2)cc1F |
| 2.94 | ≤ 4.74 | 24.4 | 51.3 (≈ 152 µM) | 0.35 | 0.271 | O=C1CN(c2ccc(Nc3nccc(C(F)(F)F)n3)cn2)CCN1 |
| – | 187 | 956 | – | – | – | CCOc1ccc(CC(=O)N2CCC3(CC2)Nc2cc(C)ccc2-n2cccc23)cc1OCC |
| 0.646 | 164 | 1240 | 45.5 (≈ 138 µM) | – | – | O=C(NCCc1ccc2c(c1)OCO2)N1CCc2sccc2C1 |
| – | 163 | 1960 | – | – | – | COc1ccc(OC)c(C(=O)/C=C/c2ccccc2)c1 |
| – | – | – | 0.15 (≈ 0.442 µM) | – | – | CCCn1c(=O)c2c(nc3n2CCN3c2ccc(C)cc2)n(C)c1=O |

| MDR1-MDCK efflux ratio | intrinsic clearance, human liver microsomes [mL/min/kg] | intrinsic clearance, rat liver microsomes [mL/min/kg] | aqueous solubility [µg/mL] | fraction unbound, human plasma | fraction unbound, rat plasma | Compound |
| --- | --- | --- | --- | --- | --- | --- |
| – | 21.3 | 133 | 20.2 (≈ 47.7 µM) | – | – | O=C(c1ccc(F)cc1)N1Cc2nc[nH]c2C[C@H]1c1nc(-c2ccc(Cl)cc2)no1 |
| 0.243 | 96.3 | 1050 | 67 (≈ 197 µM) | – | – | COc1ccccc1C(=O)NCc1nc(C)cc(N2CCCCC2)n1 |
| 6.92 | 25.7 | 308 | 48.4 (≈ 146 µM) | – | – | CCCN(CC)c1ccc(C(=O)N2CCCN(C(C)=O)CC2)cc1 |
| – | – | – | 0.13 (≈ 0.437 µM) | – | – | COc1ccccc1-c1csc(-n2ncc(C#N)c2N)n1 |
| 0.518 | 42.1 | 2670 | – | – | – | O=C(CSCCc1ccccn1)Nc1ccccc1 |
| 1.25 | ≤ 4.74 | 27.1 | 23.3 (≈ 103 µM) | – | – | CC(C)NC(=O)Cn1nnnc1C(C)(C)C |
| – | 55.3 | 598 | – | – | – | CC(C)C[C@H](C(=O)N[C@H](C(=O)OC1CCCC1)c1ccccc1)[C@@H](O)C(=O)NO |
| 0.524 | 12.9 | 1110 | – | – | – | NC(=O)CN1CCC(COc2ccccc2C(F)(F)F)CC1 |
| – | 13.6 | 186 | – | – | – | Cn1c(=O)oc2cc(NC(C3CC3)C3CC3)ccc21 |
| 0.596 | 8.8 | 221 | 11.2 (≈ 51.4 µM) | – | – | Cc1nnnn1CCN(C)c1ccccc1 |
| 0.704 | 34.3 | 114 | 36.2 (≈ 151 µM) | – | – | CCOC(=O)CNC(=O)c1ccc(O)cc1O |
| 0.961 | 151 | 2520 | 29.1 (≈ 83.6 µM) | – | – | CSc1ccc(CN(CCO)C(=O)CCc2cccc(F)c2)cc1 |
| – | 7.6 | 17 | – | – | – | CC(C)Cc1ccc(-c2nc(-c3ccc(CN4CC(C(=O)O)C4)cc3)no2)cc1 |
| 0.971 | 27.9 | 375 | 46.2 (≈ 135 µM) | – | – | CC(C)(C)n1ncc(C(=O)N2CCCn3ncnc32)c1C(F)(F)F |
| 8.59 | 78.1 | 442 | – | – | – | CC(=O)N(C)[C@H]1CC2(CCN(C(=O)COc3cc(C)c(Cl)c(C)c3)CC2)OC[C@]1(C)O |
| 23.7 | 13 | 355 | 42.1 (≈ 130 µM) | – | – | Cc1ccsc1CN(C)C(=O)[C@@H]1CCCN1C(=O)NC(C)C |
| 0.474 | 147 | 2320 | 31.2 (≈ 98.9 µM) | – | – | O=C(NCc1ccc2c(c1)OCCO2)c1sccc1C1CC1 |
| 6.91 | ≤ 4.74 | 34.5 | 35.3 (≈ 139 µM) | – | – | c1ccc2c(c1)CCN(Cc1nnc3n1CCC3)C2 |
| 0.361 | ≤ 4.74 | ≤ 10.7 | – | – | – | c1ccc(CC2=NCCN2)cc1 |
| 32.9 | ≤ 4.74 | 28.8 | 57.1 (≈ 158 µM) | – | – | Cc1ccc2nc3c(c(C(=O)NCc4nnc5n4CCC5)c2c1)CCCC3 |

| MDR1-MDCK efflux ratio | intrinsic clearance, human liver microsomes [mL/min/kg] | intrinsic clearance, rat liver microsomes [mL/min/kg] | aqueous solubility [µg/mL] | fraction unbound, human plasma | fraction unbound, rat plasma | Compound |
| --- | --- | --- | --- | --- | --- | --- |
| – | – | – | 0.21 (≈ 0.716 µM) | – | – | CNC(=O)c1ccc(-c2nnc(-c3cccc(C)c3)o2)cc1 |
| 26 | 13.7 | 81 | 39 (≈ 108 µM) | – | – | CCCCc1c(C)[nH]c2nc(N(Cc3cccs3)C(C)=O)nn2c1=O |
| 1.79 | ≤ 4.74 | 179 | – | – | – | CC(C)n1cc(CN2CCC(c3nc(N(C)C)no3)CC2)cn1 |
| 0.578 | ≤ 4.74 | ≤ 10.7 | 32.1 (≈ 134 µM) | – | – | CN(Cc1cccc(C#N)c1)Cc1cnn(C)c1 |
| – | ≤ 4.74 | 97.9 | – | – | – | Cn1nccc1C(=O)C1CCN(C(=O)c2cc(C(C)(C)C)nn2C)CC1 |
| – | 46.5 | 143 | 55 (≈ 222 µM) | – | – | CNCCN1CCC(OCc2ccccc2)CC1 |
| 1.19 | ≤ 4.74 | 658 | 35.2 (≈ 128 µM) | – | – | CC(C)(C)C(=O)Nc1nnc(Cc2ccccc2)s1 |
| – | – | – | 58 (≈ 266 µM) | – | – | O=C(CC1CCCC1)NCc1ccncc1 |
| 1.58 | 916 | 5800 | 61.8 (≈ 180 µM) | – | – | Cc1oc(C)c(C(=O)N(C)Cc2ccccc2N2CCOCC2)c1C |
| 0.895 | ≤ 4.74 | 51.4 | – | – | – | Cc1ccccc1NC(=O)Cn1nnc(C2CC2)n1 |
| 1.59 | ≤ 4.74 | ≤ 10.7 | 42.1 (≈ 127 µM) | – | – | O=C(Cc1cccc(I)c1)N1CC(CO)C1 |
| 12.7 | ≤ 4.74 | 27.9 | – | – | – | Cc1nc(NCc2cn(C)nc2-c2cccs2)n(C)n1 |
| 2.91 | 33.6 | 377 | 32.2 (≈ 89.3 µM) | – | – | Cc1ccc(NC(=O)OC(C)(C)C)c2c1N(C(=O)[C@H]1CCCO1)CCC2 |
| 0.667 | 44.8 | 200 | 59.6 (≈ 240 µM) | – | – | Cc1cccc(N(C)C(=O)COC2CCCC2)n1 |
| 1.13 | 6.66 | 57.2 | – | – | – | CNc1ncc(CN(C)CCN2CCCCC2)cn1 |
| – | 183 | 855 | 48 (≈ 179 µM) | – | – | CCc1cnc(CCNc2cncc(Cl)n2)s1 |
| 0.753 | – | – | 0.96 (≈ 2.29 µM) | – | – | Cc1cc(C(=O)NC2CCN(c3nc(-c4cccs4)nc4ccccc34)CC2)on1 |
| – | 29.3 | 362 | 80.8 (≈ 237 µM) | – | – | CN1C(=O)CCc2cc(NC(=O)C(C)(C)c3ccccc3F)ccc21 |
| 0.853 | – | – | 0.44 (≈ 1.08 µM) | – | – | CCOc1ccc(S(=O)(=O)N(CC)CC(=O)Nc2ccc3c(c2)OCO3)cc1 |
